{
  "source": "paper PMC8064491",
  "about": "“Design and Synthesis of Novel Symmetric Fluorene-2,7-Diamine Derivatives as Potent Hepatitis C Virus Inhibitors” (Pharmaceuticals, 2021)",
  "key": {"[1]": {"test_system": "HCV subgenomic reporter replicon of genotype 1b (strain Con1)", "experiment": "Anti-HCV 1b activity, luciferase reporter replicon assay in Huh5-2 cells", "format": "cell-based, Hepatitis C virus", "conditions": "for EC50: Hepatitis C virus", "procedure": "(§1) The HCV RNA replication inhibitory effect of the novel compounds and their impact on cell viability was tested in the stable cell line Huh5-2 carrying an HCV subgenomic reporter replicon of genotype 1b (strain Con1). The viral replication level was measured in terms of the activity of the co-expressed firefly luciferase (F-Luc). Several concentrations of the tested compounds were prepared in a cell culture medium and were used to treat the cells for 72 h. The solvent DMSO was added as a control with a final concentration of 0.2% so as not to impact viral replication (data not shown). First, different compound concentrations of up to 100 μM were evaluated for their effect on cell viability; results are reported as the median cytotoxic concentration (CC50). Next, all compounds were screened for their anti-HCV activity at a concentration of 1 µM, and compounds showing ≥50% activity were further tested in several concentrations to calculate the median effective concentration (EC50) values (Table 1 and Table 2). The anti-HCV activity of the analogs 1–32 was estimated by quantifying luciferase activity resulting from viral replication. Cytotoxicity was determined by measuring the intracellular levels of ATP. The selectivity index (SI50) was calculated as the ratio of CC50 to EC50 and was calculated as an indication of the compounds’ safety. We used daclatasvir as a positive control.\n(§2) The stable replicon cell line Huh5-2 (genotype 1b; Con1) (kindly provided by R. Bartenschlager, Heidelberg University, Germany) has been described previously. The stable cell lines Huh7.5-3a and Huh7.5-4a have been constructed with the subgenomic reporter replicons of HCV 3a (S52) S52-SG(Feo)(AII) and HCV 4a (ED43) ED43-SG(Feo)(VYG) (kindly provided by C.M. Rice, The Rockefeller University, NY). Cells were cultured in high glucose (25 mM) Dulbecco’s modified minimal essential medium (Invitrogen), supplemented with 2 mM L-glutamine, 0.1 mM non-essential amino acids, 100 U/mL penicillin, 100 µg/mL streptomycin, and 10% (v/v) fetal calf serum (referred to as complete DMEM). Complete DMEM was supplemented with G418 at 500 μg/mL for Huh5-2, 750 μg/mL for Huh7.5-3a, and 350 μg/mL for Huh7.5-4a.\n(§3) Cells were treated with serial dilutions of the test compounds or the solvent DMSO for 72 h. Antiviral activity and cytotoxicity were determined by measuring virus-derived luciferase activity or intracellular ATP levels, respectively. The median effective concentration (EC50) of the compounds, reducing luciferase signal by 50%, and their median cytotoxic concentration (CC50), causing 50% cell death, were determined by nonlinear regression analysis using the Prism 6.0 software (GraphPad Software Inc.). Daclatasvir was kindly provided by Dr. Marc Windisch (Institut Pasteur Korea).\nFirefly luciferase activity was measured using Luciferase Assay System (Promega), according to the manufacturer’s instructions. Measurements were performed with a GloMax 20/20 single tube luminometer (Promega) for 10 s. Values were normalized to total protein amounts as quantified by Bradford assay (Pierce)."}, "[2]": {"experiment": "Cytotoxicity by intracellular ATP levels", "format": "cell-based", "conditions": "human, Huh5-2 cells, read-out: HCV Replicon 1b CC50", "procedure": "as §1, §3\nATP was measured using the ViaLight HS BioAssay kit (Lonza) according to the manufacturer’s protocol in a GloMax 20/20 single-tube luminometer (Promega) for 1 s. Values were normalized to total protein amounts."}, "[3]": {"test_system": "HCV subgenomic replicon of genotype 3a (strain S52)", "experiment": "Anti-HCV 3a activity, replicon assay in Huh7.5-3a cells", "format": "cell-based, Hepatitis C virus", "excerpt": "(§4) Compound 26, showing the highest activity on genotype 1b was further tested against HCV 3a and 4a replicons. The fact that genotype 4 is highly heterogeneous, of less response to DAAs, and the most prevalent genotype in Egypt, made this genotype of specific interest. Moreover, genotype 3 is the most difficult to treat genotype using DAAs, especially in patients with liver cirrhosis. Specifically, Huh7.5-3a and Huh7.5-4a stable cell lines having HCV subgenomic replicons of genotypes 3a (strain S52) and 4a (strain ED43), respectively, were treated with different concentrations of compound 26. […] Further structural optimization is required, and testing compound 26 in combination with other DAAs could improve the clinical outcome.\nas §2\n(§5) Cells were treated with serial dilutions of the test compounds or the solvent DMSO for 72 h. Antiviral activity and cytotoxicity were determined by measuring virus-derived luciferase activity or intracellular ATP levels, respectively. […]\n(§6) Firefly luciferase activity was measured using Luciferase Assay System (Promega), according to the manufacturer’s instructions. […] Values were normalized to total protein amounts as quantified by Bradford assay (Pierce)."}, "[4]": {"test_system": "HCV subgenomic replicon of genotype 4a (strain ED43)", "experiment": "Anti-HCV 4a activity, replicon assay in Huh7.5-4a cells", "format": "cell-based", "conditions": "Hepatitis C virus, read-out: EC50 GT 4a", "excerpt": "as §4\nThe stable replicon cell line Huh5-2 (genotype 1b; Con1) (kindly provided by R. Bartenschlager, Heidelberg University, Germany) has been described previously. […]\nas §5, §6"}, "[5]": {"test_system": "HCV genotype 1b replicon (Huh5-2 cells)", "experiment": "Drug-drug interaction with daclatasvir in Huh5-2 replicon cells (F-Luc activity)", "format": "cell-based, Hepatitis C virus", "procedure": "Next, we investigated the effect of compound 26 in the presence of daclatasvir (DCV) in Huh5-2 replicon cells. […] It is worth noting that NS5A is a very flexible protein and can attain different conformations (open conformer and closed conformer PDB ID: 1ZH1, 3FQM, respectively); thus, there is the potential for different binding modes of daclatasvir and our molecules, at the active center of the NS5A protein, leading to synergism.\nThe coefficient of Drug interactions (CDI) is calculated as follows: CDI = AB / (A × B), where AB is the ratio of the combination groups to the control group; A or B is the ratio of the single-agent group to the control group.\nFigure 4 Synergistic anti-HCV activity of compound 26 with daclatasvir (DCV). Huh5-2 cells were treated with 30 pM or […] of DCV was used to in the presence or absence of the analog. F-Luc activity was quantified as relative light units (RLU) per μg of total protein. Values derived from cells treated with the solvent DMSO (control—C) were set to 100%. CDI: coefficient of drug interaction. Bars show mean values derived from three independent experiments in triplicate. Error bars denote standard deviation (SD). TEXT PRINTED IN THE PICTURE: 26 + DCV: CDI: 0,68 (DCV 15 pM - Comp. 26 25 pM); CDI: 0,70 (DCV 30 pM - Comp. 26 50 pM)"}, "HCV 1b RNA": {"test_system": "HCV 1b RNA", "experiment": "Quantification of (+) strand HCV RNA by RT-qPCR in Huh5-2 cells", "format": "cell-based", "conditions": "Hepatitis C virus, Huh-5-2, normalized to YWHAZ", "procedure": "The HCV RNA and NS5A protein levels were determined in cells treated with compound 26 using reverse transcription-quantitative polymerase chain reaction (RT-qPCR) or Western blot analysis, respectively (Figure 5A).\nTotal RNA was extracted from Huh5-2 cells with Nucleozol reagent (Macherey-Nagel), according to the manufacturer’s instructions, and used to perform reverse-transcription (RT) and quantitative real-time polymerase chain reaction (qPCR) for replicon RNA. RT was performed using Moloney Murine Leukemia Virus (MMLV) reverse transcriptase (Promega) and reverse primers specific for Con1 IRES (5’-[…]-3’) and the housekeeping gene YWHAZ (5’- […]-3’). For qPCR, primers specific for the Con1 IRES (forward: 5’-[…]-3’and reverse: 5’-[…]-3’) and KAPA SYBR FAST qPCR Master Mix (Kapa Biosystems) were used. YWHAZ mRNA was used as a normalization control (forward: 5’-[…]-3’ and reverse: 5’- […]-3’).\nFigure 5 Anti-HCV activity of compound 26 at the level of viral RNA and protein. Different concentrations of compound 26, or the solvent DMSO (control—C), were used to treat Huh5-2 cells. (A) Quantification of (+) strand HCV RNA by RT-qPCR. Values are expressed as a percentage of those obtained from control cells. mRNA levels of the housekeeping gene 14-3-3-zeta polypeptide (YWHAZ) were used for normalization. (B) (Top) Western blot analysis for NS5A. β-actin was used as a loading control. […]"}},
  "note": "Read-outs that look alike come from different tables or passages of the source.",
  "data": [
    {"compound": "CCOC(=O)N[C@@H](C(=O)N1CCC[C@H]1C(=O)Nc1ccc2c(c1)Cc1cc(NC(=O)[C@@H]3CCCN3C(=O)[C@H](NC(=O)OCC)c3ccccc3)ccc1-2)c1ccccc1", "note": "[Compound 26, Diethyl((1R,1’R)-((2S,2’S)-(((9H-fluorene-2,7-diyl)bis(azanediyl))bis(carbonyl))bis(pyrrolidine-2,1-diyl))bis(2-oxo-1-phenylethane-2,1-diyl))dicarbamate]", "values": [
      {"measurement": "fold more active than S counterparts", "setting": "[1]; 25 vs 21, 26 vs 22, HCV 1b EC50 ratio", "result": 200, "unit": "fold"},
      {"measurement": "EC50", "setting": "[1]; Huh-5-2, 72 h, read-out: HCV Replicon 1b EC50", "result": 0.036, "unit": "nM"},
      {"measurement": "EC50", "setting": "[1]; Huh-5-2, read-out: EC50 against HCV genotype 1b", "result": 0.04, "unit": "nM"},
      {"measurement": "selectivity index relative to daclatasvir", "setting": "[1]; SI50 ratio", "result": "four-fold better"},
      {"measurement": "CC50 at 72 h", "setting": "[2]", "result": "> 100000", "unit": "nM"},
      {"measurement": "effect on GT 3a relative to daclatasvir", "setting": "[3]; EC50 ratio", "result": "seven-fold higher"},
      {"measurement": "EC50", "setting": "[3]; Hepatitis C virus, read-out: EC50 GT 3a", "result": 1.2, "unit": "nM"},
      {"measurement": "EC50", "setting": "[4]", "result": 117, "unit": "nM"},
      {"measurement": "CDI", "setting": "[5]; DCV 15 pM - Comp. 26 25 pM", "result": "0,68"},
      {"measurement": "CDI", "setting": "[5]; DCV 30 pM - Comp. 26 50 pM", "result": "0,70"},
      {"measurement": "coefficient of drug interaction (CDI)", "setting": "[5]; compound 26 with daclatasvir, CDI <1 synergistic", "result": "≈ 0.7"},
      {"measurement": "EC50", "setting": "HCV 1b RNA", "result": 0.03, "unit": "nM"}
    ]}
  ]
}
